Measurements taken from patent US9283281B2, “Preparation of triple responsive nanogel system and its application” (University of South Carolina, priority 2013, dated 2016).

System: UMSCC22A cells
Experiment: Cell death after PDT by propidium iodide fluorometry
Assay type: cell-based
Details: after irradiation; after 5 h of PDT
Method: After exposure to red light, cells were incubated for various periods of time prior to analysis.
Cell death was assessed by propidium iodide (PI) fluorometry using a multi-well fluorescence plate reader, as previously described. Human head and neck cancer cells (UMSCC22A) were plated on 96-well plates (15,000 cells/well) in Dulbecco's Modified Eagle's Medium (DMEM) (Gibco) supplemented with 10% fetal bovine serum (FBS) and penicillin/streptomycin (complete culture medium) in a humidified 37° C. incubator at 5% CO2/95% air. […] Before exposure to light, cells were changed to fresh medium supplemented with PI (30 μM) and Insulin-Transferrin-Selenium-X (ITX) reagent [insulin (10 μg/ml), transferrin (5.5 μg/m), selenium (6.7 ng/ml), ethanolamine (0.2 mg/ml)] (Gibco) but omitting FBS. PI fluorescence was measured at frequent intervals using 530 nm excitation (25 nm band pass) and 620 nm emission (40 nm band pass) filters. Between measurements, microtiter plates were placed in a 37° C. incubator. At the end of the experiment, digitonin (200 μM) was added to each well to permeabilize all cells and label all nuclei with PI. Cell viability determined by PI fluorometry is essentially the same as cell viability determined by trypan blue exclusion.

Silicon phthalocyanine [Pc 4]
cell killing: 35%
